Patent US10745382B2 (BRISTOL-MYERS SQUIBB COMPANY, priority 2015, dated 2020)

Target: T1, PD-1/PD-L1 (Homo sapiens, UniProt Q9NZQ7)
T1 construct: made in house; host or cells: HEK293T
Experiment: PD-1/PD-L1 Homogenous Time-Resolved Fluorescence (HTRF) binding assay
Conditions: PD-L1-His 10 nM, PD-1-Ig 20 nM; value given as range class; read-out: Range or IC50
Outline: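 Detection by europium cryptate anti-Ig plus APC anti-His (1 nM and 20 nM final) with HTRF signal. Buffer was dPBS, 0.1% BSA, 0.05% Tween-20.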

T1 sequence (Q9NZQ7 with tags, fused parts or gaps): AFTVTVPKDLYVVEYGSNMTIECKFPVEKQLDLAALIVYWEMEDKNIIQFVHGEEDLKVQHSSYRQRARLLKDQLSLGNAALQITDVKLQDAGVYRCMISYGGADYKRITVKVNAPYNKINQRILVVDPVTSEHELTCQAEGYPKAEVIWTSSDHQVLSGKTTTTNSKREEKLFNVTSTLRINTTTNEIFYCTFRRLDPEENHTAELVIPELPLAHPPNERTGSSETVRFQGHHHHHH

Row | Compound | IC50
1 | Cc1cc(OCCCN2CC[C@@H](O)C2)ccc1-c1cccc(COc2cc(OCc3cncc(C#N)c3)c(CN[C@H](CO)C(=O)O)cc2Cl)c1C [Example 1070, (R)-2-((5-chloro-2-((5-cyanopyridin-3-yl)methoxy)-4-((4′-(3-((R)-3-hydroxypyrrolidin-1-yl)propoxy)-2,2′-dimethyl-[1,1′-biphenyl]-3-yl)methoxy)benzyl)amino)-3-hydroxypropanoic Acid] | 0.21 to 10 nM
2 | Cc1cc(OCCCN2CC[C@@H](O)C2)ccc1-c1cccc(COc2cc(OCc3cncc(C#N)c3)c(CN3CCCC[C@H]3C(=O)O)cc2Cl)c1C [Example 1071, (S)-1-(5-chloro-2-((5-cyanopyridin-3-yl)methoxy)-4-((4′-(3-((R)-3-hydroxypyrrolidin-1-yl)propoxy)-2,2′-dimethyl-[1,1′-biphenyl]-3-yl)methoxy)benzyl)piperidine-2-carboxylic Acid] | 0.21 to 10 nM
3 | COC(=O)C1CN(CCCOc2cccc(-c3cccc(COc4cc(OCc5cncc(S(C)(=O)=O)c5)c(CN5CCCC[C@H]5C(=O)O)cc4Cl)c3C)c2C)CC1O (stereo partly drawn) [Example 1072, (2S)-1-(5-chloro-4-((3′-(3-(3-hydroxy-4-(methoxycarbonyl)pyrrolidin-1-yl)propoxy)-2,2′-dimethyl-[1,1′-biphenyl]-3-yl)methoxy)-2-((5-(methylsulfonyl)pyridin-3-yl)methoxy)benzyl)piperidine-2-carboxylic Acid] | 0.21 to 10 nM
4 | COC(=O)C1CN(CCCOc2cccc(-c3cccc(COc4cc(OCc5cncc(S(C)(=O)=O)c5)c(CN[C@](C)(CO)C(=O)O)cc4Cl)c3C)c2C)CC1O (stereo partly drawn) [Example 1073, (2R)-2-((5-chloro-4-((3′-(3-(3-hydroxy-4-(methoxycarbonyl)pyrrolidin-1-yl)propoxy)-2,2′-dimethyl-[1,1′-biphenyl]-3-yl)methoxy)-2-((5-(methylsulfonyl)pyridin-3-yl)methoxy)benzyl)amino)-3-hydroxy-2-methylpropanoic Acid] | 0.21 to 10 nM
5 | Cc1c(COc2cc(OCc3cncc(S(C)(=O)=O)c3)c(CN3CCCC[C@H]3C(=O)O)cc2Cl)cccc1-c1cccc(OCCCN2CC(O)C(C(=O)O)C2)c1C (stereo partly drawn) [Example 1074, (2S)-1-(4-((3′-(3-(3-carboxy-4-hydroxypyrrolidin-1-yl)propoxy)-2,2′-dimethyl-[1,1′-biphenyl]-3-yl)methoxy)-5-chloro-2-((5-(methylsulfonyl)pyridin-3-yl)methoxy)benzyl)piperidine-2-carboxylic Acid] | 0.21 to 10 nM
6 | Cc1c(COc2cc(OCc3cncc(S(C)(=O)=O)c3)c(CN[C@](C)(CO)C(=O)O)cc2Cl)cccc1-c1cccc(OCCCN2CC(O)C(C(=O)O)C2)c1C (stereo partly drawn) [Example 1075, 1-(3-((3′-((4-((((R)-2-carboxy-1-hydroxypropan-2-yl)amino)methyl)-2-chloro-5-((5-(methylsulfonyl)pyridin-3-yl)methoxy)phenoxy)methyl)-2,2′-dimethyl-[1,1′-biphenyl]-3-yl)oxy)propyl)-4-hydroxypyrrolidine-3-carboxylic Acid] | 0.21 to 10 nM
7 | CNC(=O)C1CCN(CCCOc2cccc(-c3cccc(COc4cc(OCc5cncc(C#N)c5)c(CN[C@](C)(CO)C(=O)O)cc4Cl)c3C)c2Cl)CC1 [Example 1076, (R)-2-((5-chloro-4-((2′-chloro-2-methyl-3′-(3-(4-(methylcarbamoyl)piperidin-1-yl)propoxy)-[1,1′-biphenyl]-3-yl)methoxy)-2-((5-cyanopyridin-3-yl)methoxy)benzyl)amino)-3-hydroxy-2-methylpropanoic Acid] | 0.21 to 10 nM
8 | CNC(=O)C1CCN(CCCOc2cccc(-c3cccc(COc4cc(OCc5cncc(C#N)c5)c(CN5CCCC[C@H]5C(=O)O)cc4Cl)c3C)c2Cl)CC1 [Example 1077, (S)-1-(5-chloro-4-((2′-chloro-2-methyl-3′-(3-(4-(methylcarbamoyl)piperidin-1-yl)propoxy)-[1,1′-biphenyl]-3-yl)methoxy)-2-((5-cyanopyridin-3-yl)methoxy)benzyl)piperidine-2-carboxylic Acid] | 0.21 to 10 nM
9 | CC(=O)NC1CCN(CCCOc2cccc(-c3cccc(COc4cc(OCc5cncc(C#N)c5)c(CN5CCCC[C@H]5C(=O)O)cc4Cl)c3C)c2Cl)CC1 [Example 1078, (S)-1-(4-((3′-(3-(4-acetamidopiperidin-1-yl)propoxy)-2′-chloro-2-methyl-[1,1′-biphenyl]-3-yl)methoxy)-5-chloro-2-((5-cyanopyridin-3-yl)methoxy)benzyl)piperidine-2-carboxylic Acid] | 0.21 to 10 nM
10 | CC(=O)NC1CCN(CCCOc2cccc(-c3cccc(COc4cc(OCc5cncc(C#N)c5)c(CN[C@](C)(CO)C(=O)O)cc4Cl)c3C)c2Cl)CC1 [Example 1079, (R)-2-((4-((3′-(3-(4-acetamidopiperidin-1-yl)propoxy)-2′-chloro-2-methyl-[1,1′-biphenyl]-3-yl)methoxy)-5-chloro-2-((5-cyanopyridin-3-yl)methoxy)benzyl)amino)-3-hydroxy-2-methylpropanoic Acid] | 0.21 to 10 nM
11 | Cc1c(COc2cc(OCc3cncc(C#N)c3)c(CN[C@H](CO)C(=O)O)cc2Cl)cccc1-c1cccc(OCCCN2CC(O)C2)c1C [Example 1080, (R)-2-((5-chloro-2-((5-cyanopyridin-3-yl)methoxy)-4-((3′-(3-(3-hydroxyazetidin-1-yl)propoxy)-2,2′-dimethyl-[1,1′-biphenyl]-3-yl)methoxy)benzyl)amino)-3-hydroxypropanoic Acid] | 0.21 to 10 nM
12 | Cc1c(COc2cc(OCc3cncc(S(C)(=O)=O)c3)c(CN3CCCC[C@H]3C(=O)O)cc2Cl)cccc1-c1cccc(OCCCN2C[C@H](O)C[C@H]2C(=O)O)c1Cl [Example 1081, (S)-1-(4-((3′-(3-((2S,4R)-2-carboxy-4-hydroxypyrrolidin-1-yl)propoxy)-2′-chloro-2-methyl-[1,1′-biphenyl]-3-yl)methoxy)-5-chloro-2-((5-(methylsulfonyl)pyridin-3-yl)methoxy)benzyl)piperidine-2-carboxylic Acid] | 0.21 to 10 nM
13 | COC(=O)[C@@H]1CCN(CCCOc2cccc(-c3cccc(COc4cc(OCc5cncc(S(C)(=O)=O)c5)c(CN[C@](C)(CO)C(=O)O)cc4Cl)c3C)c2C)C1 [Example 1082, (R)-2-((5-chloro-4-((3′-(3-((R)-3-(methoxycarbonyl)pyrrolidin-1-yl)propoxy)-2,2′-dimethyl-[1,1′-biphenyl]-3-yl)methoxy)-2-((5-(methylsulfonyl)pyridin-3-yl)methoxy)benzyl)amino)-3-hydroxy-2-methylpropanoic Acid] | 0.21 to 10 nM
14 | Cc1c(COc2cc(OCc3cncc(S(C)(=O)=O)c3)c(CN[C@](C)(CO)C(=O)O)cc2Cl)cccc1-c1cccc(OCCCN2CC[C@@H](C(=O)O)C2)c1C [Example 1083, (R)-1-(3-((3′-((4-((((R)-2-carboxy-1-hydroxypropan-2-yl)amino)methyl)-2-chloro-5-((5-(methylsulfonyl)pyridin-3-yl)methoxy)phenoxy)methyl)-2,2′-dimethyl-[1,1′-biphenyl]-3-yl)oxy)propyl)pyrrolidine-3-carboxylic Acid] | 0.21 to 10 nM
15 | Cc1c(COc2cc(OCc3cncc(S(C)(=O)=O)c3)c(CN3CCCC[C@H]3C(=O)O)cc2Cl)cccc1-c1cccc(OCCCN2CC[C@@H](C(=O)O)C2)c1C [Example 1084, (S)-1-(4-((3′-(3-((R)-3-carboxypyrrolidin-1-yl)propoxy)-2,2′-dimethyl-[1,1′-biphenyl]-3-yl)methoxy)-5-chloro-2-((5-(methylsulfonyl)pyridin-3-yl)methoxy)benzyl)piperidine-2-carboxylic Acid] | 0.21 to 10 nM
16 | Cc1c(COc2cc(OCc3cncc(C#N)c3)c(CN3CCCC[C@H]3C(=O)O)cc2Cl)cccc1-c1cccc(OCCCN2C[C@H](O)C[C@H]2C(N)=O)c1Cl [Example 1085, (S)-1-(4-((3′-(3-((2S,4R)-2-carbamoyl-4-hydroxypyrrolidin-1-yl)propoxy)-2′-chloro-2-methyl-[1,1′-biphenyl]-3-yl)methoxy)-5-chloro-2-((5-cyanopyridin-3-yl)methoxy)benzyl)piperidine-2-carboxylic Acid] | 0.21 to 10 nM
17 | Cc1c(COc2cc(OCc3cncc(C#N)c3)c(CN[C@](C)(CO)C(=O)O)cc2Cl)cccc1-c1cccc(OCCCN2C[C@H](O)C[C@H]2C(N)=O)c1Cl [Example 1086, (R)-2-((4-((3′-(3-((2S,4R)-2-carbamoyl-4-hydroxypyrrolidin-1-yl)propoxy)-2′-chloro-2-methyl-[1,1′-biphenyl]-3-yl)methoxy)-5-chloro-2-((5-cyanopyridin-3-yl)methoxy)benzyl)amino)-3-hydroxy-2-methylpropanoic Acid] | 0.21 to 10 nM
18 | Cc1c(COc2cc(OCc3cncc(C#N)c3)c(CN3CCCC[C@H]3C(=O)O)cc2Cl)cccc1-c1cccc(OC/C=C/CN2CC[C@@H](O)C2)c1 [Example 1087, (S)-1-(5-chloro-2-((5-cyanopyridin-3-yl)methoxy)-4-((3′-(((E)-4-((R)-3-hydroxypyrrolidin-1-yl)but-2-en-1-yl)oxy)-2-methyl-[1,1′-biphenyl]-3-yl)methoxy)benzyl)piperidine-2-carboxylic Acid] | 10 to 100 nM
19 | Cc1c(COc2cc(OCc3cncc(C#N)c3)c(CN3CCCC[C@H]3C(=O)O)cc2Cl)cccc1-c1cccc(OCCCN2CC[C@@](O)(c3ccc(Cl)cc3)[C@](C)(O)C2)c1Cl [Example 1088, (S)-1-(5-chloro-4-((2′-chloro-3′-(3-((3R,4R)-4-(4-chlorophenyl)-3,4-dihydroxy-3-methylpiperidin-1-yl)propoxy)-2-methyl-[1,1′-biphenyl]-3-yl)methoxy)-2-((5-cyanopyridin-3-yl)methoxy)benzyl)piperidine-2-carboxylic Acid] | 0.21 to 10 nM
20 | Cc1c(COc2cc(OCc3cncc(C#N)c3)c(CN[C@H](CO)C(=O)O)cc2Cl)cccc1-c1cccc(OCCCN2CC[C@@](O)(c3ccc(Cl)cc3)[C@](C)(O)C2)c1Cl [Example 1089, (5-chloro-4-((2′-chloro-3′-(3-((3R,4R)-4-(4-chlorophenyl)-3,4-dihydroxy-3-methylpiperidin-1-yl)propoxy)-2-methyl-[1,1′-biphenyl]-3-yl)methoxy)-2-((5-cyanopyridin-3-yl)methoxy)benzyl)-D-serine] | 0.21 to 10 nM
